According to patent publication US10519504B2, “Methods for treatment of oncological disorders using epimetabolic shifters, multidimensional intracellular molecules, or environmental influencers” (Berg LLC, priority 2009, dated 2019):

Columns and labels:
[1] = test system: Caspase-3; test: Western blot of building block components, Caspase-3; format: cell-based; conditions: for Caspase-3 expression: Skmel-28; for Caspase-3 expression (summary): oncogenic cells
Procedure: (§1) Skmel-28 melanoma cells were cultured in DMEM/F12 supplemented with 5% Fetal Bovine Serum (FBS) and 1× final concentration of Antibiotics. The cells were grown to 85% confluency and treated with building block components for 3, 6, 12 and 24 hours. The cells were then pelleted and a Western blot analysis was performed. The test building block components included L-Phenylylalanine, DL-Phenylylalanine, D-Phenylylalanine, L-Tyrosine, DL-Tyrosine, D-Tyrosine, 4-Hydroxy-phenylpyruvate, phenylacetate, 3-methoxy-4-hydroxymandelate (vanillylmandelate or VMA), vanillic acid, 4-hydroxy-benzoate, pyridoxine, panthenol, mevalonic acid, Acetylglycine, Acetyl-CoA, Farnesyl, and 2,3-Dimethoxy-5-methyl-p-benzoquinone.
(§2) In the Western Blot Analysis, the cells were pelleted in cold PBS, lysed, and the protein levels were quantified using a BCA protein assay. The whole cell lysate was loaded in a 4% loading 12% running Tris-HCl gel. The proteins were then transferred to a nitrocellulose paper then blocked with a 5% milk Tris-buffered solution for 1 hour. The proteins were then exposed to primary antibodies (Bcl-2 and Caspase-3) overnight. The nitrocellulose paper was then exposed to Pico Chemilluminescent for 5 min and the protein expression was recorded. After exposure, actin was quantified using the same method. Using ImageJ the levels of protein expression were quantified. A t-Test was used to analyze for statistical significance.

[2] = test system: Bcl-2; test: Western blot of building block components, Bcl-2; format: cell-based; conditions: for Bcl-2 (summary): oncogenic cells
Procedure: as §1, §2

[3] = test system: Melanoma cells; test: Cell proliferation assay (cell count) of building block combinations; format: cell-based
Procedure: This set of experiments used a cell proliferation assay to assess the effect of combining different building block molecules on cell proliferation.
The first study examined the effect of combining 4-Hydroxy-Benzoate with Benzoquinone. Cells were incubated for 48 hours, after which a cell count was performed for the live cells. Each test group was compared to the control, and each combination groups were compared to Benzoquinone control. The compounds were statistically analyzed for the addition of Benzoquinone.
Additional studies were performed testing additional molar ratios. For the first test 4-Hydroxybenzoic were tested at concentrations of 500 nM, 1 μM, and 50 μM. These concentrations were tested in combination with 2,3-Dimethoxy-5-methyl-p-benzoquinone (Benzo). The concentration of Benzo tested were 25 μM, 50 μM, and 100 μM. Melanoma cells were grown to 80% confluency and seeded in 6 well plates at a concentration of 40K cells per well. The cells were treated with CoQ10, 4-Hydroxybenzoate, Benzo, and a combination of 4-Hydroxybenzoate/Benzo.
A T-test was performed with p<0.05 as statistically significant.

[4] = test system: neonatal fibroblast cells; test: Cell proliferation assay (coulter counter); format: cell-based; conditions: HB 500 nM, 5 μM, 25 μM, alone and with benzoquinone 25, 50, 100 μM; 24 hours
Procedure: A cell proliferation assay was also performed on neonatal fibroblast cells. The concentrations of HB tested were 500 nM, 5 μM, and 25 μM. HB was also tested in combination with benzoquinone at a concentrations of 25 μM, 50 μM, and 100 μM. Melanoma cells were seeded at 40 k cells per well and were treated for 24 hours. The cells were trypsinized and quantified using a coulter counter.

[5] = test system: induced pancreatic cancer; conditions: Group H: 5 mg/kg
[6] = test system: cancer cells; conditions: cited from earlier work
[7] = Skmel-28, 24 hours, concentration not given
[8] = all time points and concentrations tested (500 nM, 1 μM, 25 μM, 50 μM)
[9] = Skmel-28, all time points and concentrations tested (500 nM, 1 μM, 25 μM, 50 μM)

Question: What does the source list for `NC(Cc1ccccc1)C(=O)O` (racemic) [DL-Phenylalanine]?
Answer: Caspase-3 expression ([1]; 3 hours, concentration not given): statistically significant increase in Caspase-3; Bcl-2 expression [2, 7]: statistically significant decrease in Bcl-2

Question: With `NC(Cc1ccc(O)cc1)C(=O)O` (racemic) [DL-Tyrosine] as the compound, how does the Caspase-3 expression ([1]; 5 μM and 15 μM, 12 hours) read?
Answer: increase in Caspase-3 expression

Question: What about the Bcl-2 expression ([2]; Skmel-28, 1 μM and 15 μM, 12 hours) of the same compound?
Answer: statistical decrease in Bcl-2 expression

Question: What about the Bcl-2 expression ([2]; Skmel-28, 5 μM, 24 hours) of the same compound?
Answer: statistical decrease in Bcl-2 expression

Question: What does the source list for `O=C(O)C(=O)Cc1ccc(O)cc1` [4-Hydroxy-phenylpyruvate]?
Answer: Caspase-3 expression ([1]; 5 μM and 15 μM, 12 hours): significant increase in Caspase-3 expression; Caspase-3 expression (summary) [1]: increase in Caspase-3 expression; Bcl-2 expression ([2]; Skmel-28, 5 μM and 15 μM, 24 hours): significant reduction in Bcl-2 expression; Bcl-2 (summary) [2]: significant reduction in Bcl-2

Question: What does the source list for `O=C(O)c1ccc(O)cc1` [4-Hydroxybenzoate, 4-hydroxy-benzoate]?
Answer: cell number vs control ([3]; 48 hours): significant decrease in cell number; cell proliferation ([3]; HB 500 nM, 1 μM, 50 μM): significant decrease in cell proliferation; Bcl-2 expression ([2]; Skmel-28, 15 μM, 24 hours): significant reduction in Bcl-2 expression; fibroblast cell number [4]: did not show a significant reduction in fibroblast cells

Question: For `CC(=O)SCCNC(=O)CCNC(=O)[C@H](O)C(C)(C)COP(=O)(O)OP(=O)(O)OC[C@H]1O[C@@H](n2cnc3c(N)ncnc32)[C@H](O)[C@@H]1OP(=O)(O)O` [Acetyl-CoA], which Caspase-3 expression [1, 8] is on record?
Answer: no significant observed reduction in Bcl-2 or increase in Caspase-3 expression

Question: And the Bcl-2 expression [2, 9]?
Answer: no significant observed reduction in Bcl-2

Question: Which Bcl-2 expression ([2]; Skmel-28, 5 μM and 25 μM, 12 hours) does the source give for `CC(=O)NCC(=O)O` [Acetylglycine] here?
Answer: significant decrease in Bcl-2 expression

Question: What about the Bcl-2 expression ([2]; Skmel-28, 100 μM, 24 hour) of the same compound?
Answer: significant decrease in Bcl-2

Question: For `N[C@H](Cc1ccccc1)C(=O)O` [D-Phenylalanine], which Caspase-3 expression ([1]; 5 μM and 100 μM, 6 hours) is on record?
Answer: significant increase in Caspase-3 expression

Question: What about the Bcl-2 expression ([2]; Skmel-28, 5 μM and 25 μM, 3 hours) of the same compound?
Answer: significant reduction

Question: And the Bcl-2 expression ([2]; Skmel-28, 5 μM, 25 μM and 100 μM, 6 hours)?
Answer: significant reduction in Bcl-2 expression

Question: Which Caspase-3 expression ([1]; 1 μM, 12 and 24 hour) does the source give for `N[C@H](Cc1ccc(O)cc1)C(=O)O` [D-Tyrosine] here?
Answer: increase in Caspase-3 expression

Question: And the Caspase-3 expression ([1]; 5 μM, 3, 12 and 24 time periods)?
Answer: significantly increased

Question: And the Caspase-3 expression ([1]; 5 μM, 12 hour)?
Answer: increase in Caspase-3 expression

Question: What about the Bcl-2 expression ([2]; Skmel-28, 5 μM and 15 μM, 12 and 24 hours) of the same compound?
Answer: reduction in Bcl-2 expression

Question: Which “survival after 28 days” value [5] does the source give for `COc1cccc2c1C(=O)c1c(O)c3c(c(O)c1C2=O)C[C@@](O)(C(=O)CO)C[C@@H]3O[C@H]1C[C@H](N)[C@H](O)[C@H](C)O1` [Doxorubicin, reference compound] here?
Answer: a significant number of the animals in Group H had died due to the toxicity of Doxorubicin

Question: What does the source list for `N[C@@H](Cc1ccccc1)C(=O)O` [L-Phenylalanine]?
Answer: Caspase-3 expression ([1]; 25 μM, 12 hours): statistically significant increase in Caspase-3; Caspase-3 expression (summary) [1]: increase in Caspase-3 expression; Bcl-2 expression ([2]; Skmel-28, 5 μM, 6 hours): statistically significant decrease in Bcl-2; Bcl-2 expression ([2]; Skmel-28, 25 μM, 12 hours): statistically significant decrease in Bcl-2; Bcl-2 expression ([2]; Skmel-28, 100 μM, 3 hours and 12 hours): statistically significant decrease in Bcl-2; Bcl-2 expression compared to the control ([2]; Skmel-28, remaining time points, not statistically significant): constant trend for the decrease in Bcl-2; Bcl-2 (summary) [2]: significant reduction in Bcl-2

Question: What does the source list for `N[C@@H](Cc1ccc(O)cc1)C(=O)O` [L-Tyrosine]?
Answer: Caspase-3 expression ([1]; 500 nM, 12 hours): statistically significant increase in Caspase-3; Caspase-3 expression (summary) [1]: increase in Caspase-3 expression; Bcl-2 expression ([2]; Skmel-28, 5 μM, 24 hours): statistically significant decrease in Bcl-2; Bcl-2 expression ([2]; Skmel-28, 500 μM and 5 μM, 24 hours): statistically significant decrease in Bcl-2; Bcl-2 (summary) [2]: significant reduction in Bcl-2

Question: What does the source list for `C[C@@](O)(CCO)CC(=O)O` [Mevalonic Acid, mevalonic acid]?
Answer: Caspase-3 expression [1, 8]: no significant reduction in Bcl-2 expression or an increase in Caspase-3 expression; Bcl-2 expression [2, 9]: no significant reduction in Bcl-2 expression

Question: Which Bcl-2 expression ([2]; melanoma cells, 25 μM) does the source give for `CC(C)(CO)[C@@H](O)C(=O)NCCCO` [Panthenol, panthenol] here?
Answer: significant reduction in Bcl-2 expression

Question: For `Cc1ncc(CO)c(CO)c1O` [Pyridoxine, pyridoxine], which Bcl-2 expression [2, 7] is on record?
Answer: significant reduction in Bcl-2

Question: Which results are given for `COc1cc(C(O)C(=O)O)ccc1O` (stereo not drawn) [VMA, 3-methoxy-4-hydroxymandelate]?
Answer: Bcl-2 expression, trend ([2]; Skmel-28, 100 nM to 100 μM): downward trend of Bcl-2 expression; apoptotic effect (Bcl-2, Caspase-3) ([2]; Skmel-28, 100 nM to 100 μM): no statistically significant apoptotic effect

Question: Which Caspase-3 expression ([1]; 15 μM, 24 hours) does the source give for `COc1cc(C(=O)O)ccc1O` [Vanillic Acid, vanillic acid] here?
Answer: significant increase in Caspase-3 expression

Question: And the Bcl-2 expression ([2]; Skmel-28, 500 nM and 5 μM, 24 hour)?
Answer: significantly reduce Bcl-2 expression

Question: What about the Bcl-2 expression ([2]; Skmel-28, 15 μM, 3 hours) of the same compound?
Answer: reduction in Bcl-2 expression

Question: With `C=C1/C(=C\C=C2/CCC[C@]3(C)[C@@H]([C@H](C)CCCC(C)(C)O)CC[C@@H]23)C[C@@H](O)C[C@@H]1O` [Vitamin D3, 1α, 25-dihydroxyvitamin D3] as the compound, how does the “expression of BCL2 and BCL-XL” value ([6]; Deeb et al. 2007) read?
Answer: repressing the expression of the anti-apoptotic, pro-survival proteins BCL2 and BCL-XL

Question: And the “expression of pro-apoptotic proteins (BAX, BAK, BAD)” value ([6]; Deeb et al. 2007)?
Answer: inducing the expression of pro-apoptotic proteins

Question: What about the p21WAFI/CIPI gene transcription ([6]; Deeb et al. 2007) of the same compound?
Answer: induce gene transcription of the cyclin-dependent kinase inhibitor p21WAFI/CIPI

Question: And the “expression of VEGF” value ([6]; Masuda and Jones, 2006)?
Answer: inhibit the expression of vascular endothelial growth factor (VEGF)

Question: And the “proliferation of tumor-derived endothelial cells” value ([6]; Masuda and Jones, 2006)?
Answer: inhibit the proliferation of some tumor-derived endothelial cells
